Laboratory results taken from US20240101546A1, “HETEROARYL-ACETYLENES, PHARMACEUTICAL COMPOSITIONS THEREOF, AND THEIR THERAPEUTIC APPLICATIONS” (Eubulus Biotherapeutics Inc., priority 2020, published 2024).

system: hepatocellular carcinoma cell line Hub-7; experiment: Cell proliferation assay, Hub-7 (CELL-TITER GLO); assay type: cell-based; conditions: Hub-7 cells, 24 h incubation, cell viability by CELL-TITER GLO, top concentration 10 μM; read-out: EC50, Inhibition of Hub-7 Cell Proliferation
Procedure: The activity of a compound was determined in a cell proliferation assay using the hepatocellular carcinoma cell line Hub-7. Cells (4,000 cells per well) were seeded in a 96-well tissue culture plate. After incubated overnight, the compound was added at predetermined concentrations, starting with 10 μM and followed by 3-fold serial dilution. After the cells were incubated for 24 h, cell viability was determined using a CELL-TITER GLO® assay. The CELL-TITER GLO® reagent (50 μL) was added to each well and the luminescence was measured by a multimode microplate reader after a brief period of shaking. EC50 values were determined for the compound. The results are summarized in Table 1, wherein A represents a value no greater than 200 nM, B represents a value greater than 200 nM but no greater than 1 μM, C represents a value greater than 1 μM but no greater than 5 μM, and D represents a value greater than 5 μM.

| Structure (SMILES) | EC50 [nM] |
| --- | --- |
| C#Cc1nc(NC(=O)NCc2ccc(-c3c(C(=O)NC)ccc4ncsc34)cc2)cs1 [Compound A17, 7-(4-((3-(2-Ethynylthiazol-4-yl)ureido)methyl)phenyl)-N-methylbenzo[d]-thiazole-6-carboxamide] | 1000 to 5000 |
| C#Cc1nc(NC(=O)NCc2ccc(-c3cccc4ccnc(O)c34)cc2)cs1 [Compound A18, 1-(2-Ethynylthiazol-4-yl)-3-(4-(1-hydroxyisoquinolin-8-yl)benzyl)urea] | 200 to 1000 |
| C#Cc1nc(NC(=O)NCc2ccc(-c3c(C(N)=O)ccc4ncsc34)cc2)cs1 [Compound A19, 7-(4-((3-(2-Ethynylthiazol-4-yl)ureido)methyl)phenyl)benzo[d]thiazole-6-carboxamide] | 200 to 1000 |
| C#Cc1nc(NC(=O)NCc2ccc(-c3cc(C(N)=O)cc4c3cnn4C)cc2)cs1 [Compound A20, 4-(4-((3-(2-Ethynylthiazol-4-yl)ureido)methyl)phenyl)-1-methyl-1H-indazole-6-carboxamide] | 1000 to 5000 |
| C#Cc1nc(NC(=O)NCc2ccc(-c3cc(C(=O)NC)cc4c3cnn4C)cc2)cs1 [Compound A21, 4-(4-((3-(2-Ethynylthiazol-4-yl)ureido)methyl)phenyl)-N,1-dimethyl-1H-indazole-6-carboxamide] | 200 to 1000 |
| C#Cc1nc(NC(=O)NCc2ccc(-c3cc(C(=O)OC)cc4c3cnn4C)cc2)cs1 [Compound A22, Methyl 4-(4-((3-(2-ethynylthiazol-4-yl)ureido)methyl)phenyl)-1-methyl-1H-indazole-6-carboxylate] | ≤ 200 |
| C#Cc1nc(NC(=O)NCc2ccc(-c3cc(C(=O)N(C)C)cc4c3cnn4C)cc2)cs1 [Compound A23, 4-(4-((3-(2-Ethynylthiazol-4-yl)ureido)methyl)phenyl)-N,N,1-trimethyl-1H-indazole-6-carboxamide] | 200 to 1000 |
| C#Cc1nc(NC(=O)N2CCCC2c2ccc(-c3cccc4ncsc34)cc2)cs1 (centres unmarked) [Compound B1, 2-(4-(Benzo[d]thiazol-7-yl)phenyl)-N-(2-ethynylthiazol-4-yl)pyrrolidine-1-carboxamide] | 200 to 1000 |
| C#Cc1nc(NC(=O)N2CC(c3ccc(-c4cccc5ncsc45)cc3)C2)cs1 [Compound B2, 3-(4-(Benzo[d]thiazol-7-yl)phenyl)-N-(2-ethynylthiazol-4-yl)azetidine-1-carboxamide] | ≤ 200 |
| C#Cc1nc(NC(=O)N2CCc3cc(-c4cccc5ncsc45)ccc3C2)cs1 [Compound B3, 6-(Benzo[d]thiazol-7-yl)-N-(2-ethynylthiazol-4-yl)-3,4-dihydroisoquinoline-2(1H)-carboxamide] | 200 to 1000 |
| C#Cc1nc(NC(=O)N2Cc3ccc(-c4cccc5ncsc45)cc3C2)cs1 [Compound B4, 5-(Benzo[d]thiazol-7-yl)-N-(2-ethynylthiazol-4-yl)isoindoline-2-carboxamide] | 200 to 1000 |
| C#Cc1nc(NC(=O)N2CCN(c3ccc(-c4cccc5ncsc45)cc3)CC2)cs1 [Compound B5, 4-(4-(Benzo[d]thiazol-7-yl)phenyl)-N-(2-ethynylthiazol-4-yl)piperazine-1-carboxamide] | ≤ 200 |
| C#Cc1nc(NC(=O)N2CCC(c3ccc(-c4cccc5ncsc45)cc3)CC2)cs1 [Compound B6, 4-(4-(Benzo[d]thiazol-7-yl)phenyl)-N-(2-ethynylthiazol-4-yl)piperidine-1-carboxamide] | ≤ 200 |
| C#Cc1nc(C(=O)NCCc2ccc(-c3cc4ncsc4cc3F)cc2)cs1 [Compound C1, 2-Ethynyl-N-(4-(6-fluorobenzo[d]thiazol-5-yl)phenethyl)thiazole-4-carboxamide] | 200 to 1000 |
| C#Cc1nc(C(=O)NCCc2ccc(-c3cccc4ncsc34)c(F)c2)cs1 [Compound C2, N-(4-(Benzo[d]thiazol-7-yl)-3-fluorophenethyl)-2-ethynylthiazole-4-carboxamide] | ≤ 200 |
| C#Cc1nc(C(=O)NCCc2ccc(-c3c(C(N)=O)ccc4ncsc34)cc2)cs1 [Compound C3, 7-(4-(2-(2-Ethynylthiazole-4-carboxamido)ethyl)phenyl)benzo[d]thiazole-6-carboxamide] | 200 to 1000 |
| C#Cc1nc(C(=O)NCCc2ccc(-c3cccc(C(=O)NC)c3)cc2)cs1 [Compound C4, 2-Ethynyl-N-(2-(3′-(methylcarbamoyl)-[1,1′-biphenyl]-4-yl)ethyl)thiazole-4-carboxamide] | ≤ 200 |
| C#Cc1nc(C(=O)NCCc2ccc(-c3c(F)ccc4ncsc34)cc2)cs1 [Compound C5, 2-Ethynyl-N-(4-(6-fluorobenzo[d]thiazol-7-yl)phenethyl)thiazole-4-carboxamide] | ≤ 200 |
| C#Cc1nc(C(=O)NCCc2ccc(-c3ccccc3S(=O)(=O)N(C)C)cc2)cs1 [Compound C6, N-(2-(2′-(N,N-Dimethylsulfamoyl)-[1,1′-biphenyl]-4-yl)ethyl)-2-ethynylthiazole-4-carboxamide] | ≤ 200 |
| C#Cc1nc(C(=O)NCCc2ccc(-c3cc(C(N)=O)cc4ncsc34)cc2)cs1 [Compound C8, 7-(4-(2-(2-Ethynylthiazole-4-carboxamido)ethyl)phenyl)benzo[d]thiazole-5-carboxamide] | 200 to 1000 |
| C#Cc1nc(C(=O)NCCc2ccc(-c3cc(C(=O)NC)cc4ncsc34)cc2)cs1 [Compound C9, 7-(4-(2-(2-Ethynylthiazole-4-carboxamido)ethyl)phenyl)-N-methylbenzo[d]-thiazole-5-carboxamide] | 200 to 1000 |
| C#Cc1nc(C(=O)NCCc2ccc(-c3cc(C(=O)OC)cc4ncsc34)cc2)cs1 [Compound C10, Methyl 7-(4-(2-(2-ethynylthiazole-4-carboxamido)ethyl)phenyl)benzo[d]thiazole-5-carboxylate] | ≤ 200 |
| C#Cc1nc(C(=O)NCCc2ccc(-c3cccc4nccnc34)cc2)cs1 [Compound C11, 2-Ethynyl-N-(4-(quinoxalin-5-yl)phenethyl)thiazole-4-carboxamide] | 200 to 1000 |
| C#Cc1nc(C(=O)NCCc2ccc(-c3ccccc3C(=O)NC)cc2)cs1 [Compound C12, 2-Ethynyl-N-(2-(2′-(methylcarbamoyl)-[1,1′-biphenyl]-4-yl)ethyl)thiazole-4-carboxamide] | 1000 to 5000 |
| C#Cc1nc(C(=O)NCCc2ccc(-c3cccc4c3C(=O)NC4)cc2)cs1 [Compound C13, 2-Ethynyl-N-(4-(3-oxoisoindolin-4-yl)phenethyl)thiazole-4-carboxamide] | 200 to 1000 |
| C#Cc1nc(C(=O)NCCc2ccc(-c3cccc4c3C(=O)C(=O)N4)cc2)cs1 [Compound C14, N-(4-(2,3-Dioxoindolin-4-yl)phenethyl)-2-ethynylthiazole-4-carboxamide] | 200 to 1000 |
| C#Cc1nc(C(=O)NCCc2ccc(-c3ccccc3S(C)(=O)=O)cc2)cs1 [Compound C15, 2-Ethynyl-N-(2-(2′-(methylsulfonyl)-[1,1′-biphenyl]-4-yl)ethyl)thiazole-4-carboxamide] | 200 to 1000 |
| C#Cc1nc(C(=O)NCCc2ccc(-c3cccc4ccnc(O)c34)cc2)cs1 [Compound C16, 2-Ethynyl-N-(4-(1-hydroxyisoquinolin-8-yl)phenethyl)thiazole-4-carboxamide] | 200 to 1000 |
| C#Cc1nc(C(=O)NCCc2ccc(-c3cccc4c3CNC4=O)cc2)cs1 [Compound C17, 2-Ethynyl-N-(4-(1-oxoisoindolin-4-yl)phenethyl)thiazole-4-carboxamide] | ≤ 200 |
